In publication PMC6917776, “Discovery of a chemical probe for PRDM9” (Nature Communications, 2019):
Where two headings read alike, the source gives them in different places.

Experiment: CelltiterGlo viability cell assay
Format: cell-based
Settings: human
Method in brief: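 Mycoplasma-negative lines were plated at line-specific densities and treated with a compound titration (0.01–30 μM); CelltiterGlo signal at day 3 or 6 was referenced to DMSO control.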

[1] = MDA-MB-436 breast cancer cells, MDA MB436, 3 day, read-out: viability Replicate 2
[2] = MDA-MB-436 breast cancer cells, MDA MB436, 3 day, read-out: viability Replicate 3
[3] = MDA-MB-436 breast cancer cells, MDA MB436, 3 day, read-out: viability Average
[4] = MDA-MB-436 breast cancer cells, MDA MB436, 3 day, read-out: viability Replicate 1
[5] = MDA-MB-436 breast cancer cells, MDA MB436, 6 day, read-out: viability Average
[6] = MDA-MB-436 breast cancer cells, MDA MB436, 6 day, read-out: viability Replicate 1
[7] = MDA-MB-436 breast cancer cells, MDA MB436, 6 day, read-out: viability Replicate 2
[8] = MDA-MB-436 breast cancer cells, MDA MB436, 6 day, read-out: viability Replicate 3
[9] = MDA-MB-436 cells, MDA MB436, 3 day, read-out: viability Replicate 1
[10] = MDA-MB-436 cells, MDA MB436, 3 day, read-out: viability Replicate 2
[11] = RPMI-8226 cells (multiple myeloma line), 8226, 3 day, read-out: viability Average
[12] = RPMI-8226 cells (multiple myeloma line), 8226, 3 day, read-out: viability Replicate 1
[13] = RPMI-8226 cells (multiple myeloma line), 8226, 3 day, read-out: viability Replicate 2
[14] = RPMI-8226 cells (multiple myeloma line), 8226, 3 day, read-out: viability Replicate 3
[15] = RPMI-8226 cells (multiple myeloma line), 8226, 6 day, read-out: viability Average
[16] = RPMI-8226 cells (multiple myeloma line), 8226, 6 day, read-out: viability Replicate 1
[17] = RPMI-8226 cells (multiple myeloma line), 8226, 6 day, read-out: viability Replicate 2
[18] = RPMI-8226 cells (multiple myeloma line), 8226, 6 day, read-out: viability Replicate 3
[19] = RPMI-8226 cells, 8226, 3 day, read-out: viability Average
[20] = RPMI-8226 cells, 8226, 3 day, read-out: viability Replicate 1
[21] = RPMI-8226 cells, 8226, 3 day, read-out: viability Replicate 2
[22] = RPMI-8226 cells, 8226, 3 day, read-out: viability Replicate 3
[23] = RPMI-8226 multiple myeloma cells, 8226, 3 day, read-out: viability Average

SMILES: COc1cc(OC)cc(-c2noc(N3CCN(C)C4(CCN(c5ccnc(C)c5)CC4)C3)n2)c1 [MRK-740]
- viability at 3 day, 0.01 µM [1]: 98.8%
- viability at 3 day, 0.01 µM [2]: 92%
- viability at 3 day, 0.03 µM [3]: 105%
- viability at 3 day, 0.03 µM [4]: 124%
- viability at 3 day, 0.03 µM [1]: 99.1%
- viability at 3 day, 0.03 µM [2]: 92%
- viability at 3 day, 0.3 µM [3]: 94.8%
- viability at 3 day, 0.3 µM [2]: 92.8%
- viability at 3 day, 1 µM [3]: 104%
- viability at 3 day, 1 µM [4]: 114%
- viability at 3 day, 1 µM [1]: 105%
- viability at 3 day, 1 µM [2]: 93.4%
- viability at 3 day, 3 µM [3]: 104%
- viability at 3 day, 3 µM [4]: 120%
- viability at 3 day, 3 µM [1]: 100%
- viability at 3 day, 3 µM [2]: 91.2%
- viability at 3 day, 9.5 µM [3]: 94.9%
- viability at 3 day, 9.5 µM [4]: 108%
- viability at 3 day, 9.5 µM [1]: 89.3%
- viability at 3 day, 9.5 µM [2]: 87.6%
- viability at 3 day, 30 µM [3]: 51.5%
- viability at 3 day, 30 µM [4]: 60.8%
- viability at 3 day, 30 µM [1]: 50%
- viability at 3 day, 30 µM [2]: 43.6%
- viability at 6 day, 0.01 µM [5]: 103%
- viability at 6 day, 0.01 µM [6]: 97.8%
- viability at 6 day, 0.01 µM [7]: 106%
- viability at 6 day, 0.01 µM [8]: 107%
- viability at 6 day, 0.03 µM [5]: 102%
- viability at 6 day, 0.03 µM [6]: 99.8%
- viability at 6 day, 0.03 µM [7]: 100%
- viability at 6 day, 0.03 µM [8]: 106%
- viability at 6 day, 0.1 µM [5]: 104%
- viability at 6 day, 0.1 µM [6]: 105%
- viability at 6 day, 0.1 µM [7]: 101%
- viability at 6 day, 0.1 µM [8]: 106%
- viability at 6 day, 0.3 µM [5]: 107%
- viability at 6 day, 0.3 µM [6]: 108%
- viability at 6 day, 0.3 µM [7]: 105%
- viability at 6 day, 0.3 µM [8]: 109%
- viability at 6 day, 1 µM [5]: 112%
- viability at 6 day, 1 µM [6]: 109%
- viability at 6 day, 1 µM [7]: 116%
- viability at 6 day, 1 µM [8]: 111%
- viability at 6 day, 3 µM [5]: 113%
- viability at 6 day, 3 µM [6]: 115%
- viability at 6 day, 3 µM [7]: 112%
- viability at 6 day, 3 µM [8]: 112%
- viability at 6 day, 9.5 µM [5]: 70.8%
- viability at 6 day, 9.5 µM [6]: 69.6%
- viability at 6 day, 9.5 µM [7]: 71%
- viability at 6 day, 9.5 µM [8]: 71.9%
- viability at 6 day, 30 µM [5]: 35.6%
- viability at 6 day, 30 µM [6]: 34.7%
- viability at 6 day, 30 µM [7]: 35.7%
- viability at 6 day, 30 µM [8]: 36.5%
- viability at 3 day, 0.1 µM (MDA-MB-436 cells, MDA MB436, 3 day, read-out: viability Average): 105%
- viability at 3 day, 0.1 µM [9]: 123%
- viability at 3 day, 0.1 µM [10]: 102%
- viability at 3 day, 0.1 µM (MDA-MB-436 cells, MDA MB436, 3 day, read-out: viability Replicate 3): 90.1%
- viability at 3 day, 0.3 µM [9]: 91.5%
- viability at 3 day, 0.3 µM [10]: 100%
- viability at 3 day, 9.5 µM [11]: 98.3%
- viability at 3 day, 9.5 µM [12]: 105%
- viability at 3 day, 9.5 µM [13]: 96.6%
- viability at 3 day, 9.5 µM [14]: 93.4%
- viability at 3 day, 30 µM [11]: 54.9%
- viability at 3 day, 30 µM [12]: 74.2%
- viability at 3 day, 30 µM [13]: 34.5%
- viability at 3 day, 30 µM [14]: 56%
- viability at 6 day, 0.01 µM [15]: 102%
- viability at 6 day, 0.01 µM [16]: 101%
- viability at 6 day, 0.01 µM [17]: 102%
- viability at 6 day, 0.01 µM [18]: 102%
- viability at 6 day, 0.03 µM [15]: 101%
- viability at 6 day, 0.03 µM [16]: 100%
- viability at 6 day, 0.03 µM [17]: 101%
- viability at 6 day, 0.03 µM [18]: 102%
- viability at 6 day, 0.1 µM [15]: 100%
- viability at 6 day, 0.1 µM [16]: 96.9%
- viability at 6 day, 0.1 µM [17]: 102%
- viability at 6 day, 0.1 µM [18]: 102%
- viability at 3 day, 0.01 µM [19]: 98.4%
- viability at 3 day, 0.01 µM [20]: 97.7%
- viability at 3 day, 0.01 µM [21]: 100%
- viability at 3 day, 0.01 µM [22]: 97.6%
- viability at 3 day, 0.03 µM [19]: 99.5%
- viability at 3 day, 0.03 µM [20]: 97.9%
- viability at 3 day, 0.03 µM [21]: 100%
- viability at 3 day, 0.03 µM [22]: 100%
- viability at 3 day, 0.1 µM [23]: 101%
- viability at 3 day, 0.1 µM (RPMI-8226 multiple myeloma cells, 8226, 3 day, read-out: viability Replicate 1): 99.2%
- viability at 3 day, 0.1 µM (RPMI-8226 multiple myeloma cells, 8226, 3 day, read-out: viability Replicate 2): 101%
- viability at 3 day, 0.1 µM (RPMI-8226 multiple myeloma cells, 8226, 3 day, read-out: viability Replicate 3): 103%
- viability at 3 day, 0.3 µM [23]: 102%
